Test results: US10092491B2, “Skin renewal enhancer” (priority 2015, dated 2018)

Test: Solubilization in anhydrous polar solvents
Format: physicochemical
Details: 25° C.
Experimental: It was unexpectedly discovered that both hydroxy acids and urea can be fully solubilized in anhydrous solvent at concentrations suitable for use as a chemical peel. Illustratively, for a peeling activity in the provided compositions and systems the hydroxy acid and urea must be present at a concentration of 8-10% or greater, with much greater efficacy at 10% or greater. It was discovered that anhydrous polar solvents can fully solubilize (i.e. no observable haze at 25° C.) both hydroxy acids and urea up to concentrations of 25%, thereby allowing significant efficacy when applied to the skin. The use of anhydrous glycerin (as one example) alone or optionally with or substituted by other anhydrous polar solvents (e.g. anhydrous polar solvents such as propylene glycol, butylene glycol, dimethylisosorbide, etc.) allows for the elimination of water and the prevention of the “burn” experienced in prior systems.

Compound: NC(N)=O [urea]
- concentration fully solubilized (no observable haze): ≤ 25%
